Results as given in patent US10517946B2, “Polyelectrolyte multilayers assembled from immune signal compounds” (University of Maryland, College Park, priority 2015, dated 2019).

Legend:
TLR3 = target: T1, TLR3 (Mus musculus, UniProt Q99MB1); assay: TLR3 signaling in HEK-Blue mTLR3 cells (AuNP iPEMs); assay type: cell-based; settings: 16 hours, absorbance 625 nm
T1 construct: host or cells: HEK-Blue mTLR3 (HEK293-derived reporter cells)
T1 sequence (Q99MB1 26-905): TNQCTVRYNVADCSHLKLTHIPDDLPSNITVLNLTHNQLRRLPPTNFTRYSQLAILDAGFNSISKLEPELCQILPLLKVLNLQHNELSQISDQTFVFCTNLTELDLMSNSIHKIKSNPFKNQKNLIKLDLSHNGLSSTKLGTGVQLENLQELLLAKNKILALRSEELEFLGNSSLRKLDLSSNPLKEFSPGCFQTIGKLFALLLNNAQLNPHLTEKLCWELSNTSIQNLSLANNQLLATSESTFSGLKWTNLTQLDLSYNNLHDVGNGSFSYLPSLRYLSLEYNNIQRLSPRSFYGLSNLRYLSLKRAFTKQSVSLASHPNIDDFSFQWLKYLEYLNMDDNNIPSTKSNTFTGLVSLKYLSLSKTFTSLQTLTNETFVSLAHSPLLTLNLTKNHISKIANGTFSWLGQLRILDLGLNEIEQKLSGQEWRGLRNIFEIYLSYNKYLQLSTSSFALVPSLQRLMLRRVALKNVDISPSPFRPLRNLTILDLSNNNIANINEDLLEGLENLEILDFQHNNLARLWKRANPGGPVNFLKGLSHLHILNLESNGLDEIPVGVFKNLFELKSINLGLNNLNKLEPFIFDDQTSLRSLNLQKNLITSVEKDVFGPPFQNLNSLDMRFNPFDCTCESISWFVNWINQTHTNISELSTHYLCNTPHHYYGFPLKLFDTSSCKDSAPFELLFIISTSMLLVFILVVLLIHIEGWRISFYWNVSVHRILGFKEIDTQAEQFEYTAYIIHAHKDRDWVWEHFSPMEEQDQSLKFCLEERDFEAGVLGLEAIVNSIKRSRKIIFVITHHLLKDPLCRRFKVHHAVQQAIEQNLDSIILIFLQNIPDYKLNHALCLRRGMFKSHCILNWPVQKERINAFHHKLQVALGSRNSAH
Procedure: TLR3 signaling: TLR3 activity was assessed using HEK-Blue mTLR3 cells (Invivogen). Cells were seeded at a concentration of 5.0×10^4 cells per well, followed by treatment with Pam3CSK4 (0.2 μg/mL), LPS (1.0 μg/mL), polyIC (10 μg/mL), C-ODN (5 μg/mL), SIIN peptide (5 μg/mL), AuNPs (1.9×10^−2 mg/well), AuNP-(C-ODN/SIIN*)2 (80 μg/mL), or AuNP-(polyIC/SIIN*)2 (80 μg/mL). After 16 hours the absorbance was read at 625 nm using a UV/Vis platereader (Molecular Devices).

primary DCs = assay type: cell-based, mouse
Procedure: Cell internalization studies: Association and uptake of coated AuNPs by DCs was characterized by flow cytometry (FACS CantoII, BD Bioscience) and confocal microscopy (Leica SP5X). For flow cytometry, CD11c^+ splenic DCs were seeded in 96 well plates at a concentration of 1.0×10^5 cells per well. Uncoated AuNPs or AuNPs-(polyIC-Cy5/SIIN*-FITC)2 were then added to each well in a volume of 25 μL. Two-fold serial dilutions were performed using a starting iPEM/AuNPs concentration of 1.9 mg/mL. Cells were then cultured for 16 h. After incubation, cells were washed twice by centrifugation and re-suspended in FACS buffer (PBS+1% BSA). The washed cells were finally resuspended in a DAPI solution (0.1% in PBS+1% BSA) to allow assessment of viability by flow cytometry (i.e., DAPI^− cells). Cells positive for FITC and Cy5 signals compared with negative controls were considered to have associated with iPEMs.

[1] = system: splenic CD11c+ DCs from B6 mice; assay: Presentation of SIINFEKL via MHC-I by DCs; assay type: cell-based, mouse; settings: anti-SIIN/MHC-I antibody
Procedure: DC activation and antigen presentation: […] After incubation with iPEM-coated AuNPs, DCs were washed twice with PBS+1% BSA, then blocked in anti-CD16/CD32 (Fcγ III/II receptor) (25× dilution, BD Biosciences) for 15 min at room temperature. The cells were then stained with antibodies for CD80 (FITC), CD86 (AmCyan-A), and CD40 (PE). To quantify presentation of SIINFEKL (SEQ ID NO:15) via the MHC-I pathway, cells were stained with a PE-Cy7 labeled antibody (BioLegend) against anti-mouse H-2Kb bound to OVA257-264 (SIINFEKL (SEQ ID NO:15)). All antibodies were fluorescent conjugates and were used by staining for 20 min at a 1:300 dilution in PBS+1% BSA. Cells were then washed twice in PBS+1% BSA and resuspended in a DAPI solution for analysis by flow cytometry. The data analysis was performed with Flowjo (Treestar).

[2] = system: DC/OT-I T cell co-cultures; assay: ELISA of cytokines in DC/T cell co-culture supernatants; assay type: cell-based, mouse; settings: co-culture supernatant, SIIN-treated samples
Procedure: (§1) T cell co-culture, activation, and proliferation: […] Untreated cells were used as a negative control. After 48 h, T cells isolated from OT-I mice were stained with CellTrace™ CFSE cell proliferation reagent (5 μg/mL in cell culture medium) by incubation at room temperature for 5 min. T cells were then co-cultured with each DC sample by addition of 3.0×10^5 T cells per well. After an additional 48 h of incubation, cells were centrifuged (800 rcf for 5 min), the supernatants were collected for ELISA, and the cells were washed in PBS+1% FBS. Cells were then blocked as above and stained with anti-CD8a (APC) for 15 min at room temperature. Lastly, cells were washed twice and re-suspended in DAPI. T cell proliferation was determined by the mean fluorescence intensity (MFI) of CFSE signal among DAPI^−, CD8^+ cells compared with positive and negative controls. ELISA: Cytokine levels in the supernatants collected from DCs/T cell co-cultures were analyzed by ELISA using mouse TNF, IFN-γ, and IL-1β ELISA reagents (BD Bioscience) according to the manufacturer's instructions. 10 μL of each supernatant was used in each test, and cytokine concentrations were quantified by comparison to standard curves prepared from known standards.

OT-I CD8+ T cells = assay: DC / OT-I CD8+ T cell co-culture, CFSE proliferation; assay type: cell-based, mouse; settings: T cells co-cultured with treated DCs
Procedure: as §1, with “controls.” for “controls. ELISA: Cytokine levels in the supernatants collected from DCs/T cell co-cultures were analyzed by ELISA using mouse TNF, IFN-γ, and IL-1β ELISA reagents (BD Bioscience) according to the manufacturer's instructions. 10 μL of each supernatant was used in each test, and cytokine concentrations were quantified by comparison to standard curves prepared from known standards.”

Substance | TLR3 signaling (TLR3) | viability of DCs relative to cells treated with LPS (primary DCs) [%] | DCs presenting SIIN via MHC-I [1] | cytokine secretion [2] | OT-I T cell proliferation (CFSE dilution) (OT-I CD8+ T cells)
Pam3CSK4 | lack of signal | – | – | – | –
Polyinosinic-polycytidylic acid [polyIC] | – | 92.8 | baseline levels | – | –
SIINFEKL (Ovalbumin peptide model antigen) [SIIN peptide] | – | – | – | lack of cytokine secretion | proliferation of OT-I T cells
lipopolysaccharide [LPS] | lack of signal | – | baseline levels | – | –
